Measured values reported in patent US11021446B2 (NOVARTIS AG, priority 2013, dated 2021).

Biological target: T1, human Farnesoid X Receptor (FXR) ligand binding domain (GST-FXR LBD) (Homo sapiens, UniProt Q96RI1)
T1 construct: purchased Invitrogen
T1 sequence (Q96RI1 193-472 isoform Q96RI1-2): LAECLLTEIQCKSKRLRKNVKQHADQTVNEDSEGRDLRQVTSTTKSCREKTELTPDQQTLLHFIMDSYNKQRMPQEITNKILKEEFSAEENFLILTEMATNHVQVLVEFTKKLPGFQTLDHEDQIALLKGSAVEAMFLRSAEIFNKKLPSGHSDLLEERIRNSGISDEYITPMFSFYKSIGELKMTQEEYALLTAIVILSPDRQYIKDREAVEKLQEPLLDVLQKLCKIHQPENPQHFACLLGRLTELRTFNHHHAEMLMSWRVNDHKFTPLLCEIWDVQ
Assay: Human GST-FXR LBD co-activator interaction assay (FXR HTRF assay)
Type: biochemical
Conditions: GST-FXR LBD interaction with biotin-labeled SRC-1 peptide, FRET, response relative to GW4064, read-out: FXR coactivator interaction assay (HTRF)
Excerpt: Human GST-FXR LBD Co-Activator Interaction Assay
The FXR HTRF assay is a biochemical assay measuring the interaction between FXR and a coactivator protein (SRC1). The ligand-induced interaction with a coactivator protein is a critical step in transcriptional activation by FXR. Thus, this is an assay designed to measure FXR agonist activity of the test compounds.
Recombinant human Farnesoid X Receptor (FXR) ligand binding domain (amino acids 193-472) fused to glutathione S-transferase (GST) purified protein (GST-FXR LBD) was purchased (Invitrogen). The ligand-dependent interaction between GST-FXR LBD and a peptide derived from Steroid Receptor Coactivator-1 (SRC-1) was monitored by Fluorescence Resonance Energy Transfer (FRET). […] Test compounds (in DMSO solution) and detection reagents (anti-GST-Cryptate labeled antibody and Streptavidin-XL665 conjugate; CisBio) were added in assay buffer containing 50 mM KF. Plates are incubated at room temperature in the dark for 2.5 hrs before reading on an Envision (PerkinElmer) at 665 nm and 590 nm. The HTRF assay results were calculated from the 665 nm/590 nm ratio (ratio=(A665 nm/A590 nm)×10^4) and expressed in Delta F %=(Ratiosample−Rationegative)/Rationegative×100.
A negative control (without Streptavidin-XL665) was run with each assay and represented the background fluorescence. A reference FXR agonist, (E)-3-(2-chloro-4-((3-(2,6-dichlorophenyl)-5-isopropylisoxazol-4-yl)methoxy)styryl)benzoic acid (Compound GW4064), was included in each experiment as positive control. The efficacy of each test compound was compared to that of GW4064. At each concentration, the relative activity of the test compound was expressed as Response %=(Rsample−RDMSO)/(Rpositive−RDMSO), where Rsample is the HTRF response (expressed in Delta F %) for the test compound, Rpositive is the maximal response for GW4064 at saturating concentrations, and RDMSO is the response for DMSO control. The EC50 values were calculated using GraphPad Prism (GraphPad Software) using non-linear regression curve fit (log(agonist) vs. response-variable slope (four parameters)).

| SMILES | EC50 |
| --- | --- |
| Cn1nc(C(=O)N(CCNc2cc(C(=O)O)ccc2F)Cc2cccc(F)c2)c2c1-c1cc(Cl)ccc1OC2 [Compound 65, 3-((2-(8-chloro-N-(3-fluorobenzyl)-1-methyl-1,4-dihydrochromeno[4,3-c]pyrazole-3-carboxamido)ethyl)amino)-4-fluorobenzoic Acid] | 7 nM |
| Cn1nc(C(=O)N(CCOc2ccc(C(=O)O)cc2F)Cc2ccccc2F)c2c1-c1cc(F)ccc1OC2 [Compound 61, 3-fluoro-4-(2-(8-fluoro-N-(2-fluorobenzyl)-1-methyl-1,4-dihydrochromeno[4,3-c]pyrazole-3-carboxamido)ethoxy)benzoic Acid] | 89 nM |
| Cn1nc(C(=O)N(CCNc2cc(C(=O)O)ccc2F)Cc2ccccc2)c2c1-c1cc(F)ccc1OC2 [Compound 71, 3-((2-(N-benzyl-8-fluoro-1-methyl-1,4-dihydrochromeno[4,3-c]pyrazole-3-carboxamido)ethyl)amino)-4-fluorobenzoic acid] | 22 nM |
| Cn1nc(C(=O)N(CCOc2cccc(C(=O)O)c2)Cc2ccccc2F)c2c1-c1cc(Cl)ccc1OC2 [Compound 44, 3-(2-(8-chloro-N-(2-fluorobenzyl)-1-methyl-1,4-dihydrochromeno[4,3-c]pyrazole-3-carboxamido)ethoxy)benzoic acid] | 11 nM |
| Cc1cccc(CN(CC(=O)Nc2cc(C(=O)O)ccc2F)C(=O)c2nn(C)c3c2COc2ccccc2-3)c1 [Compound 4, 4-fluoro-3-(2-(1-methyl-N-(3-methylbenzyl)-1,4-dihydrochromeno[4,3-c]pyrazole-3-carboxamido)acetamido)benzoic acid] | 0.75 nM |
| Cn1nc(C(=O)N(CC(=O)Nc2cc(C(=O)O)ccc2F)Cc2ccccc2F)c2c1-c1cc(Cl)ccc1OCC2 [Compound 34, 3-(2-(9-chloro-N-(2-fluorobenzyl)-1-methyl-4,5-dihydro-1H-benzo[2,3]oxepino[4,5-c]pyrazole-3-carboxamido)acetamido)-4-fluorobenzoic acid] | 2.1 nM |
| Cn1nc(C(=O)N(CC(=O)NCC(C)(C)C(=O)O)Cc2ccccc2F)c2c1-c1cc(Cl)ccc1OC2 [Compound 41, 3-(2-(8-chloro-N-(2-fluorobenzyl)-1-methyl-1,4-dihydrochromeno[4,3-c]pyrazole-3-carboxamido)acetamido)-2,2-dimethylpropanoic acid] | 4 nM |
| Cn1nc(C(=O)N(CC(=O)Nc2cccc(C(=O)O)c2)Cc2ccccc2F)c2c1-c1cc(F)ccc1OC2 [Compound 7, 3-(2-(8-fluoro-N-(2-fluorobenzyl)-1-methyl-1,4-dihydrochromeno[4,3-c]pyrazole-3-carboxamido)acetamido)benzoic acid] | 1 nM |
| Cn1nc(C(=O)N(CC(=O)Nc2cc(C(=O)O)ccc2F)Cc2cccc(F)c2)c2c1-c1ccccc1OC2 [Compound 27, 4-fluoro-3-(2-(N-(3-fluorobenzyl)-1-methyl-1,4-dihydrochromeno[4,3-c]pyrazole-3-carboxamido)acetamido)benzoic acid] | 1.4 nM |
| Cc1ccc2c(c1)-c1c(c(C(=O)N(CC(=O)Nc3cccc(C(=O)O)c3)Cc3ccccc3F)nn1C)CO2 [Compound 5, 3-(2-(N-(2-fluorobenzyl)-1,8-dimethyl-1,4-dihydrochromeno[4,3-c]pyrazole-3-carboxamido)acetamido)benzoic acid] | 0.8 nM |
| Cn1nc(C(=O)N(CCOc2ccc(C(=O)O)cc2F)Cc2ccccc2)c2c1-c1cc(Cl)ccc1OC2 [Compound 55, 4-(2-(N-benzyl-8-chloro-1-methyl-1,4-dihydrochromeno[4,3-c]pyrazole-3-carboxamido)ethoxy)-3-fluorobenzoic Acid] | 13 nM |
| Cn1nc(C(=O)N(CC(=O)NCC2(C(=O)O)CC2)Cc2ccccc2F)c2c1-c1cc(Cl)ccc1OC2 [Compound 42, 1-((2-(8-chloro-N-(2-fluorobenzyl)-1-methyl-1,4-dihydrochromeno[4,3-c]pyrazole-3-carboxamido)acetamido)methyl) cyclopropanecarboxylic acid] | 2.5 nM |
| Cn1nc(C(=O)N(CCOc2ccc(C(=O)O)cc2C(F)(F)F)Cc2ccccc2F)c2c1-c1cc(Cl)ccc1OC2 [Compound 51, 4-(2-(8-chloro-N-(2-fluorobenzyl)-1-methyl-1,4-dihydrochromeno[4,3-c]pyrazole-3-carboxamido)ethoxy)-3-(trifluoromethyl)benzoic acid] | 9.8 nM |
| Cn1nc(C(=O)N(CC(=O)Nc2cc(C(=O)O)ccc2F)CC2CCCC2)c2c1-c1cc(Cl)ccc1OC2 [Compound 36, 3-(2-(8-chloro-N-(cyclopentylmethyl)-1-methyl-1,4-dihydrochromeno[4,3-c]pyrazole-3-carboxamido)acetamido)-4-fluorobenzoic Acid] | 33 nM |

Further lines, results first:

| EC50 | SMILES |
| --- | --- |
| 12 nM | Cn1nc(C(=O)N(Cc2ccc(C(=O)O)cc2)Cc2ccc3[nH]ccc3c2)c2c1-c1cc(Cl)ccc1OC2 [Compound 86, 4-((N-((1H-indol-5-yl)methyl)-8-chloro-1-methyl-1,4-dihydrochromeno[4,3-c]pyrazole-3-carboxamido)methyl)benzoic acid] |
| 12 nM | Cc1cc(F)cc(CN(Cc2ccc(C(=O)O)cc2)C(=O)c2nn(C)c3c2COc2ccc(Cl)cc2-3)c1 [Compound 82, 4-((8-chloro-N-(3-fluoro-5-methylbenzyl)-1-methyl-1,4-dihydrochromeno[4,3-c]pyrazole-3-carboxamido)methyl)benzoic acid] |
| 22 nM | Cn1nc(C(=O)N(Cc2ccccc2)Cc2ccc(C(=O)O)cc2F)c2c1-c1cc(F)ccc1OC2 [Compound 79, 4-((N-benzyl-8-fluoro-1-methyl-1,4-dihydrochromeno[4,3-c]pyrazole-3-carboxamido)methyl)-3-fluorobenzoic acid] |
| 8.3 nM | Cn1nc(C(=O)N(Cc2ccc(C(=O)O)cc2)Cc2cc(F)cc(F)c2)c2c1-c1cc(Cl)ccc1OC2 [Compound 78, 4-((8-chloro-N-(3,5-difluorobenzyl)-1-methyl-1,4-dihydrochromeno[4,3-c]pyrazole-3-carboxamido)methyl)benzoic acid] |
| 35 nM | Cc1cccc(CN(Cc2ccc(C(=O)O)cc2F)C(=O)c2nn(C)c3c2COc2ccc(F)cc2-3)c1 [Compound 85, 3-fluoro-4-((8-fluoro-1-methyl-N-(3-methylbenzyl)-1,4-dihydrochromeno[4,3-c]pyrazole-3-carboxamido)methyl)benzoic acid] |
| 15 nM | Cn1nc(C(=O)N(Cc2ccc(C(=O)O)cc2)Cc2cncc(F)c2)c2c1-c1cc(Cl)ccc1OC2 [Compound 88, 4-((8-chloro-N-((5-fluoropyridin-3-yl)methyl)-1-methyl-1,4-dihydrochromeno[4,3-c]pyrazole-3-carboxamido)methyl)benzoic acid] |
| 14 nM | Cn1nc(C(=O)N(Cc2ccc(C(=O)O)cc2)Cc2ccccc2F)c2c1-c1cc(Cl)ccc1OC2 [Compound 92, 4-((8-chloro-N-(2-fluorobenzyl)-1-methyl-1,4-dihydrochromeno[4,3-c]pyrazole-3-carboxamido)methyl)benzoic acid] |
| 13 nM | Cn1nc(C(=O)N(Cc2ccccc2F)Cc2ccc(C(=O)O)cc2F)c2c1-c1cc(Cl)ccc1OC2 [Compound 93, 4-((8-chloro-N-(2-fluorobenzyl)-1-methyl-1,4-dihydrochromeno[4,3-c]pyrazole-3-carboxamido)methyl)-3-fluorobenzoic acid] |
| 5 nM | Cn1nc(C(=O)N(Cc2cccc(F)c2)Cc2ccc(C(=O)O)c(F)c2)c2c1-c1cc(Cl)ccc1OC2 [Compound 90, 4-((8-chloro-N-(3-fluorobenzyl)-1-methyl-1,4-dihydrochromeno[4,3-c]pyrazole-3-carboxamido)methyl)-2-fluorobenzoic acid] |
| 55 nM | Cn1nc(C(=O)N(CCNc2cc(C(=O)O)ccc2F)Cc2ccccc2)c2c1-c1cc(F)c(F)cc1OC2 [Compound 74, 3-((2-(N-benzyl-7,8-difluoro-1-methyl-1,4-dihydrochromeno[4,3-c]pyrazole-3-carboxamido)ethyl)amino)-4-fluorobenzoic acid] |
| 14 nM | Cn1nc(C(=O)N(Cc2ccc(C(=O)O)cc2)Cc2cc(F)cc(F)c2)c2c1-c1cc(F)ccc1OC2 [Compound 83, 4-((N-(3,5-difluorobenzyl)-8-fluoro-1-methyl-1,4-dihydrochromeno[4,3-c]pyrazole-3-carboxamido)methyl)benzoic acid] |
